Each structure is given as a SMILES string.

This is an account of results in patent US4758518A, “D-2-haloalkanoic acid halidohydrolase” (Imperial Chemical Industries PLC, priority 1984, dated 1988).

The target in the test is T1, D-2-HAA halidohydrolase from Pseudomonas putida NCIB 12018 (0.15 M fraction) (Pseudomonas putida, UniProt Q52086).
T1 construct: Activity towards D-2-CPA was found exclusively in the 0.15 M fraction; endogenous in cells; host or cells: Pseudomonas putida NCIB 12018 (cell-free extract from French pressure cell, fractionated on DEAE-Sephacel, 0.15 M KCl fraction)
Description: Inhibition of dehalogenation activity of the isolated D-2-HAA halidohydrolase (0.15 M DEAE-Sephacel fraction). The format is biochemical. Conditions: at up to 1 M concentration of the substance; substrate (DL-2-CPA) or reaction product (lactate). On the procedure:
Samples of the cell-free extracts were submitted in duplicate to polyacrylamide gel electrophoresis (Hardman et al, Journal of General Microbiology, 1981, Volume 123, pages 117-128). One of each pair of gels, after electrophoresis was incubated in a buffer solution containing 50 mM D-2-CPA and the other of each pair was incubated in a buffer solution containing 50 mM L-2-CPA as described in the aforesaid Hardman et al reference.
A portion (25 ml) of the cell free extract from Pseudomonas putida NCIB 12018 was loaded onto DEAE-Sephacel column (45 mm diameter, 60 cm high) pre-equilibrated with 25 mM Tris/Sulphate buffer at pH 7.5. The column was eluted with portions (200 ml) of this buffer neat and then containing successively 0.15 M, 0.2 M and 0.5 M potassium chloride at a flow rate of 100 ml/hour.
Each of the four fractions was assayed for halidohydrolase activity as described in Step 2 using L-2-CPA and D-2-CPA as substrates.
The halidohydrolase in the 0.15 M fraction has a pH optimum for activity on D-2-CPA at 8.8-9.0. It has good activity in organic (Tris/Sulphate) and inorganic (bicarbonate/carbonate) buffers, and has activity in unbuffered media, e.g. distilled water, with the pH controlled at 8.8-9.0.
The enzymatic activity is not inhibited by up to 1 M DL-2-CPA or by the products of the reaction, i.e. chloride ion and lactate, at up to 1 M concentration.

T1 sequence (Q52086 whole entry): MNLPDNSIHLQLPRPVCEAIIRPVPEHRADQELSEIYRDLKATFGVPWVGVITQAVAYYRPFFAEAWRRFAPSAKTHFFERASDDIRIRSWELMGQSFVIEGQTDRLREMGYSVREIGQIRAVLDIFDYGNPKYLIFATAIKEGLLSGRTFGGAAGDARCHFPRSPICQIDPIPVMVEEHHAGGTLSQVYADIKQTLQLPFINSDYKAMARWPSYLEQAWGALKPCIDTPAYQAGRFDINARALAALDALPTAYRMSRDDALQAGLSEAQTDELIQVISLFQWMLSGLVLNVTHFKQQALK

Take `CC(Cl)C(=O)O` (racemic) [DL-2-CPA, 2-chloropropionic acid]: the “inhibition of the enzymatic activity” value is given as “not inhibited”.
For the compound `CC(O)C(=O)O` (centres unmarked) [lactate], the “inhibition of the enzymatic activity” value was “not inhibited”.
